Measured values: PubChem BioAssay (NCI)
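Interpolation was linear, between the two tested concentrations surrounding the appropriate level; five concentrations were tested over 48 hours in 96-well plates. GI50: concentration for 50% inhibition of growth. TGI denotes the concentration required for complete inhibition of growth.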

Tests used:
Assay in all cases: growth of human tumour cells (NCI), 48 h
[1] = system: 786-0 renal
[2] = system: A498 renal
[3] = system: A549 NSCLC
[4] = system: ACHN renal
[5] = system: BT-549 breast
[6] = system: CAKI-1 renal
[7] = system: CCRF-CEM leukemia
[8] = system: COLO 205 colon
[9] = system: DU-145 prostate
[10] = system: EKVX NSCLC
[11] = system: HCC-2998 colon
[12] = system: HCT-116 colon
[13] = system: HCT-15 colon
[14] = system: HL-60(TB) leukemia
[15] = system: HOP-62 NSCLC
[16] = system: HOP-92 NSCLC
[17] = system: HS 578T breast
[18] = system: HT29 colon
[19] = system: IGROV1 ovarian
[20] = system: K-562 leukemia
[21] = system: KM12 colon
[22] = system: LOX IMVI melanoma
[23] = system: M14 melanoma
[24] = system: MALME-3M melanoma
[25] = system: MCF7 breast
[26] = system: MDA-MB-231 breast
[27] = system: MDA-MB-435
[28] = system: MOLT-4 leukemia
[29] = system: NCI-H226 lung
[30] = system: NCI-H23 lung
[31] = system: NCI-H460 lung
[32] = system: NCI-H522 lung
[33] = system: NCI/ADR-RES ovarian
[34] = system: OVCAR-3 ovarian
[35] = system: OVCAR-4 ovarian
[36] = system: OVCAR-5 ovarian
[37] = system: OVCAR-8 ovarian
[38] = system: PC-3 prostate
[39] = system: RPMI-8226 leukemia
[40] = system: SF-268 CNS
[41] = system: SF-295 CNS
[42] = system: SF-539 CNS
[43] = system: SK-MEL-2 melanoma
[44] = system: SK-MEL-28 melanoma
[45] = system: SK-MEL-5 melanoma
[46] = system: SK-OV-3 ovarian
[47] = system: SN12C renal
[48] = system: SNB-19 CNS
[49] = system: SNB-75 CNS
[50] = system: SR leukemia
[51] = system: SW-620 colon
[52] = system: T-47D breast
[53] = system: TK-10 renal
[54] = system: U251 CNS
[55] = system: UACC-257 melanoma
[56] = system: UACC-62 melanoma
[57] = system: UO-31 renal

Compound: CC(Nc1ncnc2ccc(-c3cnc(N)nc3)cc12)c1ccccc1 (centres undefined)
- GI50 [1]: 5.33 µM
- TGI [1]: > 100 µM
- GI50 [2]: 1.42 µM
- TGI [2]: 6.52 µM
- GI50 [3]: 6.48 µM
- TGI [3]: > 100 µM
- GI50 [4]: 3.02 µM
- TGI [4]: 18.6 µM
- GI50 [5]: 2.22 µM
- TGI [5]: 12 µM
- GI50 [6]: 3.17 µM
- TGI [6]: 17.8 µM
- GI50 [7]: 7.7 µM
- TGI [7]: > 100 µM
- GI50 [8]: 13.5 µM
- TGI [8]: 47.5 µM
- GI50 [9]: 4.34 µM
- TGI [9]: > 100 µM
- GI50 [10]: 1.97 µM
- TGI [10]: 10.4 µM
- GI50 [11]: 8.05 µM
- TGI [11]: 50.8 µM
- GI50 [12]: 8.01 µM
- TGI [12]: 24.3 µM
- GI50 [13]: 4.12 µM
- TGI [13]: 54.6 µM
- GI50 [14]: 14.8 µM
- TGI [14]: 43.7 µM
- GI50 [15]: 5.76 µM
- TGI [15]: > 100 µM
- GI50 [16]: 1.04 µM
- TGI [16]: 5.62 µM
- GI50 [17]: 2.15 µM
- TGI [17]: 8.64 µM
- GI50 [18]: 8.41 µM
- TGI [18]: 46.4 µM
- GI50 [19]: 1.95 µM
- TGI [19]: 8.26 µM
- GI50 [20]: 6.32 µM
- TGI [20]: > 100 µM
- GI50 [21]: 7.91 µM
- TGI [21]: 36.3 µM
- GI50 [22]: 4.26 µM
- TGI [22]: 16.9 µM
- GI50 [23]: 6.76 µM
- TGI [23]: 31.6 µM
- GI50 [24]: 3.03 µM
- TGI [24]: 19.5 µM
- GI50 [25]: 4.1 µM
- TGI [25]: 24.4 µM
- GI50 [26]: 3.38 µM
- TGI [26]: 15.5 µM
- GI50 [27]: 11.1 µM
- TGI [27]: 42 µM
- GI50 [28]: 5.37 µM
- TGI [28]: > 100 µM
- GI50 [29]: 3.57 µM
- TGI [29]: 22 µM
- GI50 [30]: 9.2 µM
- TGI [30]: 37.4 µM
- GI50 [31]: 4.79 µM
- TGI [31]: 31.1 µM
- GI50 [32]: 4.9 µM
- TGI [32]: > 100 µM
- GI50 [33]: 9.42 µM
- TGI [33]: 47.3 µM
- GI50 [34]: 4.59 µM
- TGI [34]: 20.1 µM
- GI50 [35]: 4.55 µM
- TGI [35]: 43.4 µM
- GI50 [36]: 3.4 µM
- TGI [36]: 37.5 µM
- GI50 [37]: 10.8 µM
- TGI [37]: 30.2 µM
- GI50 [38]: 4.05 µM
- TGI [38]: > 100 µM
- GI50 [39]: 4.66 µM
- TGI [39]: 42.9 µM
- GI50 [40]: 5.26 µM
- TGI [40]: 34.5 µM
- GI50 [41]: 4.5 µM
- TGI [41]: 27 µM
- GI50 [42]: 6.2 µM
- TGI [42]: 19.2 µM
- GI50 [43]: 20.4 µM
- TGI [43]: > 100 µM
- GI50 [44]: 9.05 µM
- TGI [44]: 53.1 µM
- GI50 [45]: 7.28 µM
- TGI [45]: 20.8 µM
- GI50 [46]: 6.67 µM
- TGI [46]: > 100 µM
- GI50 [47]: 2.9 µM
- TGI [47]: 15.7 µM
- GI50 [48]: 9.29 µM
- TGI [48]: 44.1 µM
- GI50 [49]: 2.76 µM
- TGI [49]: 23.1 µM
- GI50 [50]: 4.08 µM
- TGI [50]: > 100 µM
- GI50 [51]: 15.2 µM
- TGI [51]: 51.7 µM
- GI50 [52]: 1.91 µM
- TGI [52]: 46.4 µM
- GI50 [53]: 1.59 µM
- TGI [53]: 14.2 µM
- GI50 [54]: 6.92 µM
- TGI [54]: 60 µM
- GI50 [55]: 23.9 µM
- TGI [55]: > 100 µM
- GI50 [56]: 4.48 µM
- TGI [56]: 18.2 µM
- GI50 [57]: 1.29 µM
- TGI [57]: 16.4 µM
